Inconclusive results and toxic doses are left out. Rule as the data show it: active = T/C of 150% or more; inactive = T/C below 125%.
Tested on: L1210 leukemia ip in BDF1 mice, survival T/C
Assay: NCI In Vivo Anticancer Drug Screen. Data for tumor model L1210 Leukemia (intraperitoneal) in B6D2F1 (BDF1) mice
Conditions: endpoint: mean survival time, higher = longer survival
Summary of the method: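 Read-out is survival time, reported as the treated-group measurement over the vehicle-control measurement.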

[1] = dose: 100.0 mg/kg/injection, schedule: Q01DX009 (ip), vehicle: Klucel (hydroxypropylcellulose) (HPC)
[2] = dose: 100.0 mg/kg/injection, schedule: Q04DX003 (ip), vehicle: Klucel (hydroxypropylcellulose) (HPC)
[3] = dose: 100.0 mg/kg/injection, schedule: Q04DX003 (ip), vehicle: saline with Tween-80
[4] = dose: 200.0 mg/kg/injection, schedule: Q04DX003 (ip), vehicle: saline with Tween-80
[5] = dose: 100.0 mg/kg/injection, schedule: Q01DX001 (ip), vehicle: saline
[6] = dose: 200.0 mg/kg/injection, schedule: Q01DX001 (ip), vehicle: saline
[7] = dose: 400.0 mg/kg/injection, schedule: Q01DX001 (ip), vehicle: saline
[8] = dose: 400.0 mg/kg/injection, schedule: Q04DX003 (ip), vehicle: saline with Tween-80
[9] = dose: 75.0 mg/kg/injection, schedule: Q01DX001 (ip), vehicle: other
[10] = dose: 150.0 mg/kg/injection, schedule: Q01DX001 (ip), vehicle: other
[11] = dose: 300.0 mg/kg/injection, schedule: Q01DX001 (ip), vehicle: other
[12] = dose: 50.0 mg/kg/injection, schedule: Q01DX009 (ip), vehicle: saline
[13] = dose: 100.0 mg/kg/injection, schedule: Q01DX009 (ip), vehicle: saline
[14] = dose: 200.0 mg/kg/injection, schedule: Q04DX003 (ip), vehicle: Klucel (hydroxypropylcellulose) (HPC)
[15] = dose: 400.0 mg/kg/injection, schedule: Q04DX003 (ip), vehicle: Klucel (hydroxypropylcellulose) (HPC)
[16] = dose: 25.0 mg/kg/injection, schedule: Q01DX009 (ip), vehicle: Klucel (hydroxypropylcellulose) (HPC)
[17] = dose: 200.0 mg/kg/injection, schedule: Q01DX009 (ip), vehicle: saline
[18] = dose: 100.0 mg/kg/injection, schedule: Q01DX009 (ip), vehicle: saline with Tween-80
[19] = dose: 200.0 mg/kg/injection, schedule: Q01DX009 (ip), vehicle: saline with Tween-80
[20] = dose: 400.0 mg/kg/injection, schedule: Q01DX009 (ip), vehicle: saline with Tween-80
[21] = dose: 100.0 mg/kg/injection, schedule: Q04DX003 (ip), vehicle: saline
[22] = dose: 200.0 mg/kg/injection, schedule: Q04DX003 (ip), vehicle: saline
[23] = dose: 400.0 mg/kg/injection, schedule: Q04DX003 (ip), vehicle: saline
[24] = dose: 200.0 mg/kg/injection, schedule: Q01DX009 (ip), vehicle: Klucel (hydroxypropylcellulose) (HPC)
[25] = dose: 400.0 mg/kg/injection, schedule: Q01DX009 (ip), vehicle: Klucel (hydroxypropylcellulose) (HPC)

Measured: T/C

O=[N+]([O-])c1cc(F)ccc1O
inactive: [1] 94 % of control | [2] 101 % of control | [3] 97 % of control | [4] 106 % of control

FC(F)(F)C(c1ccc(Cl)cc1)c1ccc(Cl)cc1
inactive: dose: 10.0 mg/kg/injection, schedule: Q01DX009 (ip), vehicle: saline with Tween-80 105 % of control | dose: 20.0 mg/kg/injection, schedule: Q01DX009 (ip), vehicle: saline with Tween-80 89 % of control | dose: 40.0 mg/kg/injection, schedule: Q01DX009 (ip), vehicle: saline with Tween-80 97 % of control | dose: 50.0 mg/kg/injection, schedule: Q01DX001 (ip), vehicle: saline 103 % of control | [5] 97 % of control | dose: 100.0 mg/kg/injection, schedule: Q01DX009 (ip), vehicle: other 97 % of control | [3] 103 % of control | [6] 97 % of control | [4] 102 % of control | [7] 103 % of control | [8] 100 % of control

CC(C)(CO)N=Cc1ccccc1O.CC(C)(CO)N=Cc1ccccc1O.[Cu].[Cu]
inactive: [9] 98 % of control | [10] 96 % of control | [11] 98 % of control

COc1cc2c(cc1O)CN(CCC(C)=O)CC2O (stereo unspecified)
inactive: dose: 25.0 mg/kg/injection, schedule: Q01DX009 (ip), vehicle: saline 101 % of control | [12] 93 % of control | [13] 86 % of control

CC(C)N1C(=O)OC2(CCN(CCCSc3ccc(F)cc3)CC2)C1=O
inactive: [2] 103 % of control | [14] 103 % of control | [15] 103 % of control

C=CC[Si](CC=C)(CC=C)OCC
inactive: [10] 95 % of control | [11] 101 % of control

NC(N)=N/N=C(\C(=N\N=C(N)N)c1ccccc1)c1ccccc1
inactive: dose: 60.0 mg/kg/injection, schedule: Q01DX Z (oral), vehicle: methylcellulose (MC) 98 % of control | dose: 120.0 mg/kg/injection, schedule: Q01DX Z (oral), vehicle: methylcellulose (MC) 96 % of control | dose: 240.0 mg/kg/injection, schedule: Q01DX Z (oral), vehicle: methylcellulose (MC) 94 % of control | dose: 480.0 mg/kg/injection, schedule: Q01DX Z (oral), vehicle: methylcellulose (MC) 91 % of control

O=P(O)(CCP(=O)(O)c1ccccc1)c1ccccc1
inactive: dose: 100.0 mg/kg/injection, schedule: Q04DX002 (ip), vehicle: Klucel (hydroxypropylcellulose) (HPC) 95 % of control | dose: 200.0 mg/kg/injection, schedule: Q04DX002 (ip), vehicle: Klucel (hydroxypropylcellulose) (HPC) 91 % of control | dose: 400.0 mg/kg/injection, schedule: Q04DX002 (ip), vehicle: Klucel (hydroxypropylcellulose) (HPC) 106 % of control

N#Cc1ccccc1N=NNc1ccccc1C#N
inactive: dose: 6.25 mg/kg/injection, schedule: Q01DX009 (ip), vehicle: Klucel (hydroxypropylcellulose) (HPC) 112 % of control | dose: 12.5 mg/kg/injection, schedule: Q01DX009 (ip), vehicle: Klucel (hydroxypropylcellulose) (HPC) 112 % of control | [16] 115 % of control | [9] 96 % of control | [10] 92 % of control

O=C(O)C1=C(C(=O)Nc2cccc3cccnc23)C2C=CC1O2 (stereo unspecified)
inactive: [5] 96 % of control | [6] 97 % of control | [7] 95 % of control

CC[N+]12CC=C3COC(=O)C(C)(O)C(C)(O)C(C)C(=O)OC(CC1)C32 (stereo unspecified)
inactive: [12] 92 % of control | [13] 97 % of control | [17] 92 % of control

CN1C2CC(OC3CCCCO3)C(C2)N1C (stereo unspecified)
inactive: [18] 95 % of control | [3] 94 % of control | dose: 132.0 mg/kg/injection, schedule: Q04DX003 (ip), vehicle: saline with Tween-80 100 % of control | [19] 100 % of control | [4] 102 % of control | dose: 300.0 mg/kg/injection, schedule: Q04DX003 (ip), vehicle: saline with Tween-80 117 % of control | [20] 93 % of control | [8] 102 % of control

C#CC(CC(C)CC(C)(C)C)N(C)C (stereo unspecified)
inactive: dose: 25.0 mg/kg/injection, schedule: Q01DX009 (ip), vehicle: saline with Tween-80 92 % of control | dose: 50.0 mg/kg/injection, schedule: Q01DX009 (ip), vehicle: saline with Tween-80 92 % of control | [18] 101 % of control

CCCCCCCCCCCCCCCCCCCCCCCCCC(=O)OCCCCCCCCCCCCCC
inactive: [13] 107 % of control | [21] 109 % of control | [17] 96 % of control | [22] 97 % of control | dose: 400.0 mg/kg/injection, schedule: Q01DX009 (ip), vehicle: saline 94 % of control | [23] 98 % of control

NC(=O)CC1(O)CCCCC1
inactive: [21] 114 % of control | [22] 97 % of control | [23] 97 % of control

CC(O)CNC1CCCCC1 (stereo unspecified)
inactive: dose: 75.0 mg/kg/injection, schedule: Q01DX001 (ip), vehicle: saline 92 % of control | dose: 150.0 mg/kg/injection, schedule: Q01DX001 (ip), vehicle: saline 100 % of control

CC(Cc1ccccc1)NC(=O)/C=C/C(=O)O (stereo unspecified)
inactive: [1] 96 % of control | [2] 103 % of control | [24] 106 % of control | [14] 90 % of control | [25] 95 % of control | [15] 101 % of control

O=C(O)C12CC3CC1C2C3
inactive: [3] 103 % of control | [4] 91 % of control | [8] 86 % of control

O=C1CNC(c2ccccc2)c2cc(Cl)ccc2N1 (stereo unspecified)
inactive: [16] 101 % of control | [1] 92 % of control | [24] 87 % of control

COC(=O)C(C)=O
inactive: [18] 103 % of control | [19] 101 % of control | [20] 98 % of control

N#Cc1cccc(OCCCCOc2ccccc2)c1
inactive: [1] 89 % of control | [24] 109 % of control | [25] 95 % of control

COc1ccc(C(=Cc2ccccc2Br)c2ccc(OC)cc2)cc1
inactive: [18] 102 % of control | [3] 106 % of control | [19] 98 % of control | [4] 98 % of control | [20] 93 % of control | [8] 92 % of control

O=C(CC(c1ccccc1)N1CCN(c2ccccc2)CC1)c1ccccc1 (stereo unspecified)
inactive: [2] 102 % of control | [14] 97 % of control | [15] 94 % of control

O=C(O)Cc1cccc(C(=O)O)c1
inactive: [5] 103 % of control | [6] 104 % of control | [7] 115 % of control
